For 36 compounds, log1/activity results are on record in ChEMBL document CHEMBL2429792, “2D QSAR of heteroaryl-substituted propanolamines as antihypertensive agents” (2013).

For the assay, the species on record is Rattus norvegicus. In words: Antihypertensive activity in rat assessed as inhibition of isoproterenol-induced tachycardia. The format is functional.
As to `N#Cc1ccccc1OCC(O)CNCCNC(=O)Cc1c[nH]c2ccccc12` (stereo unspecified), the log1/activity came out at 6.44. Next, `CNC(=O)Nc1ccc(C(=O)NCCNCC(O)COc2cccc3c2OCCO3)cc1` (stereo unspecified): 7.34; `O=C(NCCNCC(O)COc1ccccc1)c1ccncc1` (stereo unspecified): 5.79. Take `O=C(NCCNCC(O)COc1cccc2ccccc12)c1ccco1` (stereo unspecified): the log1/activity came to 4.73. Next, `N#Cc1ccccc1OCC(O)CNCCNC(=O)c1ccco1` (stereo unspecified): 4.73. Next, `Cc1ccccc1OCC(O)CNCCNC(=O)c1ccco1` (stereo unspecified): 5.38; `COc1ccc2c(O)cc(CC(=O)NCCNCC(O)COc3ccccc3C#N)nc2c1` (stereo unspecified): 6.65. Under `CC(C)C(=O)NCCNCC(O)COc1cccc2[nH]ccc12` (stereo unspecified) stands 7.2; under `N#Cc1ccccc1OCC(O)CNCCNC(=O)Cc1cccs1` (stereo unspecified), 6.95. In the case of `CC(C)C(=O)NCCNCC(O)COc1cccc2sccc12` (stereo unspecified), the log1/activity stood at 5.82. On to `O=C(NCCNCC(O)COc1cccc2c1OCCO2)c1ccc(O)cc1` (stereo unspecified), for which the log1/activity was determined as 6.41. Consider `O=C(Cc1ccccc1)NCCNCC(O)COc1cccc2c1OCCO2` (stereo unspecified), for which the log1/activity is given as 5.41. Take `Cc1cc(C(=O)NCCNCC(O)COc2ccccc2C#N)[nH]n1` (stereo unspecified): the log1/activity was determined as 4.78.

Consider `O=C(NCCNCC(O)COc1cccc2occc12)Nc1ccccc1` (stereo unspecified), for which the log1/activity came to 5.56. `CC(=O)c1ccc(C(=O)NCCNCC(O)COc2cccc3c2OCCO3)cc1` (stereo unspecified): the log1/activity worked out at 6.31.

Consider `O=C(NCCNCC(O)COc1ccccc1)c1cc2ccccc2[nH]1` (stereo unspecified), for which the log1/activity was 4.54. Turning to `N#Cc1ccccc1OCC(O)CNCCNC(=O)c1ccc2ccccc2n1` (stereo unspecified), the log1/activity worked out at 4.59. For `N#Cc1ccccc1OCC(O)CNCCNC(=O)Cc1csc(-c2ccc(Cl)cc2)n1` (stereo unspecified), the log1/activity is recorded as 4.89.

For `O=C(NCCNCC(O)COc1cccc2c1OCCO2)Nc1ccccc1` (stereo unspecified), the log1/activity amounted to 4.58. Regarding `O=C(NCCNCC(O)COc1ccccc1)c1ccco1` (stereo unspecified), the log1/activity is 5.48. For the compound `COc1cc(CC(=O)NCCNCC(O)COc2ccccc2C#N)nc(-c2ccc(Cl)cc2)n1` (stereo unspecified), the log1/activity is given as 4.69. Regarding `CC(C)C(=O)NCCNCC(O)COc1nccs1` (stereo unspecified), the log1/activity turned out to be 5.91. For the compound `N#Cc1ccccc1OCC(O)CNCCNC(=O)c1cc2ccccc2[nH]1` (stereo unspecified), the log1/activity was found to be 4.57. As to `Nc1ccc(C(=O)NCCNCC(O)COc2cccc3c2OCCO3)cc1` (stereo unspecified), the log1/activity is 5.5. For `C=CCOc1ccccc1OCC(O)CNCCNC(=O)c1ccco1` (stereo unspecified), the log1/activity is given as 5.07. Consider `O=C(NCCNCC(O)COc1cccc2sccc12)Nc1ccccc1` (stereo unspecified), for which the log1/activity amounted to 4.88.

For `O=C(NCCNCC(O)COc1cccc2c1OCCC2=O)Nc1ccccc1` (stereo unspecified), the log1/activity is on record as 4.83.

For `O=C(NCCNCC(O)COc1ccccc1I)c1ccco1` (stereo unspecified), the log1/activity worked out at 5.27.

Take `CC(C)C(=O)NCCNCC(O)COc1cccc2nsnc12` (stereo unspecified): the log1/activity is listed as 4.52. For the compound `O=C(NCCNCC(O)COc1ccccc1O)C1CCCO1` (stereo unspecified), the log1/activity is recorded as 5.16. `CC(C)C(=O)NCCNCC(O)COc1nsnc1N1CCOCC1` (stereo unspecified): the log1/activity came out at 6.34. For the compound `NC(=O)c1ccccc1OCC(O)CNCCNC(=O)c1cccs1` (stereo unspecified), the log1/activity was 4.78. Next, `O=C(NCCNCC(O)COc1ccccc1)c1cccs1` (stereo unspecified): 5.92; `Cc1cccc(OCC(O)CNCCNC(=O)c2ccco2)c1` (stereo unspecified): 4.9.

For the compound `CC(=O)Nc1ccc(OCC(O)CNC(C)C)cc1` (stereo unspecified) [PRACTOLOL], the log1/activity is reported as 5.72. For `CC(C)NCC(O)COc1cccc2ccccc12` (stereo unspecified) [PROPRANOLOL], the log1/activity came out at 6.11.
